We go through 9 compounds from ChEMBL document CHEMBL1201862, “PubChem BioAssay data set” (2004).

Active and inactive are the calls of the source. Some results are limits rather than exact numbers.

Assay [1] has as its target Peroxisome proliferator-activated receptor gamma/Nuclear receptor corepressor 2 (Homo sapiens, UniProt P37231+Q9Y618). In kind it is functional.
In assay [2] the target is Photoreceptor-specific nuclear receptor (Homo sapiens, UniProt Q9Y5X4). The assay is classed as functional.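 Note: potency for compounds that break the NR2E3 corepressor complex and count as activators.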
Assay [3] has as its target T1, Cytochrome P450 3A4 (Homo sapiens, UniProt P08684). The settings on record: Potency.
The target in assay [4] is T1, Cytochrome P450 3A4. The settings on record: read-out: Potency.
Assay [5] has as its target Mothers against decapentaplegic homolog 3 (Homo sapiens, UniProt P84022). The experiment in a line: blockers of Smad3 complex formation in lysate – cell lysate, secondary confirmation, chemiluminescent ELISA, HEK293 lysate, dose response (AID 1058). In kind it is functional. On the technique in general: In an ELISA, binding on a coated surface is turned into a signal by an enzyme label.

A further assay deals with Vero. The assay can be described thus: host cell viability loss, Vero E6 – synthesized analogs, cytotoxicity control for West Nile virus antiviral project, SAR follow-up (AID 2244). In kind it is functional. The following applies: Chlorocebus sabaeus.
Assay [6] deals with HEK293. The assay can be described thus: cells. The settings on record: Homo sapiens. The assay is classed as functional, cell-based.
For assay [7], the target named is Serine/threonine-protein phosphatase (Homo sapiens, UniProt Q9BPW0). The experiment in a line: Counterscreen for inhibitors of PP1: fluorescence-based biochemical high throughput dose response assay to identify inhibitors of Protein Phosphatase 5 (PP5). [Related pubchem assays: 2034 (Summary (PP5 inhibitors)), 1987 (PP5 inhibitors in singlate), 2235 (PP1 inhibitors in singlate)]. In general terms: A counterscreen serves to expose hits that act by an unwanted route or on another target.

Assay [8] has as its system HEK293. The assay can be described thus: NOD2 signaling inhibitors in MDP-stimulated cells, cell-based, uHTS, luminescence (AID 2001). In kind it is functional. The following applies: Homo sapiens.
For assay [9], the system named is HEK293. The assay can be described thus: inhibition of NOD1-driven NF-kB reporter – cell-based, luminescence, uHTS, primary screen (AID 1578). In kind it is functional. The settings on record: Homo sapiens.
Assay [10] concerns the target Serine/threonine-protein phosphatase PP1-alpha catalytic subunit (Homo sapiens, UniProt P62136). The assay can be described thus: inhibition of protein phosphatase 1 activity – biochemical, fluorescence, dose response (AID 2403).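 Note: phosphatase turnover of OMFP into fluorescent 3-O-methylfluorescein.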
Assay [11] has as its system HEK293. The assay can be described thus: cells. In kind it is functional, cell-based. The following applies: Homo sapiens. This is another data set of the same source.
Assay [12] has as its target Melanin-concentrating hormone receptor 1 (Homo sapiens, UniProt Q99705). The assay can be described thus: Late-stage fluorescence-based counterscreen for antagonists of the G-protein coupled receptor 7 (GPR7): cell-based dose response assay to identify antagonists of the melanin-concentrating hormone receptor 1 (MCHR1). [Related pubchem assays (depositor defined):AID1861, AID1880, AID1952, AID2148, AID2251, AID2257, AID485339]. The assay is classed as functional.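 Note: stimulated with 30 nM MCH peptide agonist.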

The nature of assay [13]: Trypanosoma cruzi growth suppression in host cells – NIH3T3 host cells, beta-gal luminescence, confirmation (AID 2044).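 Note: intracellular parasites grown in NIH/3T3 mouse fibroblasts as host cells; luminescent beta-galactosidase reporter signal from transgenic T. cruzi replicating inside host cells; inhibitors lower the luminescence signal.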 In kind it is functional, cell-based.
The test system of a further assay is Streptococcus. The assay can be described thus: GAS UMAA2166 growth inhibition – luminescence, BacTiterGlo, counter-screen for streptokinase expression inhibitor project, dose response (AID 1915).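 Note: potency for reduction of bacterial viability or growth.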 In kind it is functional, organism-based.
The subject of assay [14] is HEK293. The assay can be described thus: cells. The settings on record: Homo sapiens. The assay is classed as functional, cell-based. The source holds these as a separate data set.
The nature of assay [15]: luciferase reporter signal reduction – luminescence, H4-C neuroglioblastoma cells, dose response (AID 2458).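 Note: H4 neuroglioblastoma cells stably carrying a luciferase reporter gene fusion.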 In kind it is functional, cell-based.
Assay [16] has as its target Nucleotide-binding oligomerization domain-containing protein 2 (Homo sapiens, UniProt Q9HC29). The experiment in a line: inhibition of NOD2-driven NF-kB reporter – cell-based, luminescence, uHTS, HEK293 (AID 1566). The assay is classed as functional.
Another assay concerns INS1. The experiment in a line: INS-1E survival protection against cytokine death – cell-based, luminescence, retest, dose response (AID 449756).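 Note: cell death triggered by IL-1 beta plus TNF-alpha plus IFN-gamma mixture; protective hits raise ATP signal compared with cytokine alone wells.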 The assay is classed as functional. The settings on record: Rattus norvegicus.
Assay [17] can be described thus: Luminescence Cell-Based Dose Response HTS to Identify Inhibitors of 5'UTR Stem-Loop Driven Prion Protein mRNA Translation in H4 Neuroglioblastoma Cells. [Related pubchem assays: 1827 (Project Summary), 1813 (Primary HTS)]. In kind it is functional.
Assay [18] in a line: NIH-3T3 fibroblast cytotoxicity, dose response, cytotoxicity control, cell-based, fluorescence, Alamar Blue, secondary assay (AID 2327).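 Note: NIH-3T3 mouse fibroblasts cultured with fluconazole at 8 µg/mL.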 In kind it is functional. (In general: The colour change of resazurin is a common sign of viable cells or microbes.)
In assay [19] the target is T2, Serine/threonine-protein phosphatase (Candida dubliniensis (strain CD36 / CBS 7987 / NCPF 3949 / NRRLY-17841) (Yeast), UniProt B9W6M3).
T2 sequence (B9W6M3 whole entry): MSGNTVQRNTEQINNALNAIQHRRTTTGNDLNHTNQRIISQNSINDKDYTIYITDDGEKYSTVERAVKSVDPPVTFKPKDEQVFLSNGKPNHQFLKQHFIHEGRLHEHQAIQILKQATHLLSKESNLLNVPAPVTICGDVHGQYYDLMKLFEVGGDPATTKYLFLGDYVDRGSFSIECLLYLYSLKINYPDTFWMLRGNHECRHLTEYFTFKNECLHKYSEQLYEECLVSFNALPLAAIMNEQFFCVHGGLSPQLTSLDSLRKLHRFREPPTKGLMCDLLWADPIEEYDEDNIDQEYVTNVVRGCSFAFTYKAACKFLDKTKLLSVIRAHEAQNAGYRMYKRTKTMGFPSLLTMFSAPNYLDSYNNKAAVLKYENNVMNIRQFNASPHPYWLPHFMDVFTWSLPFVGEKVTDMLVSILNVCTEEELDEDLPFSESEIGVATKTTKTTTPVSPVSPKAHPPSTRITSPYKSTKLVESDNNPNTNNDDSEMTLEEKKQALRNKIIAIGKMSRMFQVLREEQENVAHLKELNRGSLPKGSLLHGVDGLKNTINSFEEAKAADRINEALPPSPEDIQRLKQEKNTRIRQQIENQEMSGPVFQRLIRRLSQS
The experiment in a line: blockers of CaCl2-induced CDRE-lacZ signaling – S. cerevisiae, luminescence, secondary, dose response (AID 2388).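 Note: yeast reporter cells carrying a calcineurin-responsive lacZ construct stimulated with calcium chloride; luminescent beta-galactosidase reporter signal in whole cells rather than isolated phosphatase activity; potency for inhibition where a drop in reporter signal means calcineurin blockade.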 The assay is classed as functional, cell-based.

The test system of assay [20] is Streptococcus sp. 'group A'. The experiment in a line: Streptococcus pyogenes SK(-)GAS viability under kanamycin – luminescence, BacTiterGlo, confirmation, counter-screen for streptokinase expression inhibitor project, dose response (AID 1900). The assay is classed as functional, organism-based.
Assay [21] can be described thus: NIH3T3 cell viability loss – ATP luminescence, mouse fibroblasts, counter-screen, dose response (AID 2010).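 Note: cells exposed to compound for about 90 hours before reading.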 In kind it is functional, cell-based.
Assay [22] addresses ATP-dependent molecular chaperone HSP82 (Candida albicans (strain WO-1) (Yeast), UniProt C4YTQ8). The experiment in a line: steroid-induced GRE reporter decrease in yeast – S. cerevisiae, luminescence, Hsp90 inhibitor project, dose response (AID 2400).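 Note: beta-galactosidase luminescence from glucocorticoid response element reporter as proxy for Hsp90 function; inhibitor potency where signal loss means Hsp90 inhibition.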 In kind it is functional, cell-based.
The nature of another assay: cells. In kind it is functional, cell-based.
A short description of assay [23]: alpha-synuclein stem-loop translation blockers – luminescence, H4 neuroglioblastoma cells, dose confirmation, confirmation (AID 2454).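 Note: H4 neuroglioblastoma cells carrying an alpha-synuclein 5'UTR luciferase reporter; potency for inhibition of the luciferase signal.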 In kind it is functional, cell-based.
Assay [24] is described as follows: fluconazole-exposed Candida albicans growth modulators – fluorescence, retest, confirmation (AID 2467). In kind it is functional, cell-based.
Assay [25] can be described thus: alpha-synuclein stem-loop luciferase translation blockers – H4 neuroglioma cells, luminescence, confirmation (AID 1988). In kind it is functional, cell-based.
For assay [26], the target named is Voltage-gated N-type calcium channel alpha-1B subunit/Amyloid beta A4 precursor protein-binding family A member 1 (Homo sapiens, UniProt Q00975+Q02410). The experiment in a line: disruptors of Mint-PDZ/N-type channel peptide interaction – biochemical, HTRF, set 2, SAR follow-up (AID 434980). The assay is classed as functional.
The target of a further assay is Beta-galactosidase (Escherichia coli, UniProt Q8VNN2). The assay can be described thus: detection-enzyme interference by beta-gal modulators – biochemical, E. coli enzyme, set 3, artefact control for CCR6 antagonist project, dose response (AID 504712). The assay is classed as functional.
The target of assay [27] is C-C chemokine receptor type 6 (Homo sapiens, UniProt P51684). The assay can be described thus: antagonism of CCR6 beta-arrestin recruitment – cell-based, luminescent beta-arrestin readout, dose response (AID 504728). In kind it is functional.

One may read the IC50 as the concentration that inhibits the measured activity by half. One may read the CC50 as the concentration that lowers cell viability or growth by half. The term EC50 denotes the midpoint of the concentration-response curve.

T1 sequence (P08684 whole entry): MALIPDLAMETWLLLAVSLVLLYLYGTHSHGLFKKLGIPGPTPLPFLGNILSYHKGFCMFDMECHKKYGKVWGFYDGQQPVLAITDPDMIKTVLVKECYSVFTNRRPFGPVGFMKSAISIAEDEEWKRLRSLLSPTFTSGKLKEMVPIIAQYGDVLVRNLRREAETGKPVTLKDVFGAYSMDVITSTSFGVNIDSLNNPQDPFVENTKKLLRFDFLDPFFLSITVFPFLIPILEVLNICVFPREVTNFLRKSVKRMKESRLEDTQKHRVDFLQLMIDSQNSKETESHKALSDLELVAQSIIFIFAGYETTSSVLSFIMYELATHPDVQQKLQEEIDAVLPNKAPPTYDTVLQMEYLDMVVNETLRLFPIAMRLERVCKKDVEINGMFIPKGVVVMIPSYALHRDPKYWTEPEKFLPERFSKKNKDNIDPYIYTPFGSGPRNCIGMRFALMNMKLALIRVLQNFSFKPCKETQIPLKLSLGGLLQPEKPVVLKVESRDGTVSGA
Chain of Voltage-gated N-type calcium channel alpha-1B subunit/Amyloid beta A4 precursor protein-binding family A member 1 (Q00975 whole entry): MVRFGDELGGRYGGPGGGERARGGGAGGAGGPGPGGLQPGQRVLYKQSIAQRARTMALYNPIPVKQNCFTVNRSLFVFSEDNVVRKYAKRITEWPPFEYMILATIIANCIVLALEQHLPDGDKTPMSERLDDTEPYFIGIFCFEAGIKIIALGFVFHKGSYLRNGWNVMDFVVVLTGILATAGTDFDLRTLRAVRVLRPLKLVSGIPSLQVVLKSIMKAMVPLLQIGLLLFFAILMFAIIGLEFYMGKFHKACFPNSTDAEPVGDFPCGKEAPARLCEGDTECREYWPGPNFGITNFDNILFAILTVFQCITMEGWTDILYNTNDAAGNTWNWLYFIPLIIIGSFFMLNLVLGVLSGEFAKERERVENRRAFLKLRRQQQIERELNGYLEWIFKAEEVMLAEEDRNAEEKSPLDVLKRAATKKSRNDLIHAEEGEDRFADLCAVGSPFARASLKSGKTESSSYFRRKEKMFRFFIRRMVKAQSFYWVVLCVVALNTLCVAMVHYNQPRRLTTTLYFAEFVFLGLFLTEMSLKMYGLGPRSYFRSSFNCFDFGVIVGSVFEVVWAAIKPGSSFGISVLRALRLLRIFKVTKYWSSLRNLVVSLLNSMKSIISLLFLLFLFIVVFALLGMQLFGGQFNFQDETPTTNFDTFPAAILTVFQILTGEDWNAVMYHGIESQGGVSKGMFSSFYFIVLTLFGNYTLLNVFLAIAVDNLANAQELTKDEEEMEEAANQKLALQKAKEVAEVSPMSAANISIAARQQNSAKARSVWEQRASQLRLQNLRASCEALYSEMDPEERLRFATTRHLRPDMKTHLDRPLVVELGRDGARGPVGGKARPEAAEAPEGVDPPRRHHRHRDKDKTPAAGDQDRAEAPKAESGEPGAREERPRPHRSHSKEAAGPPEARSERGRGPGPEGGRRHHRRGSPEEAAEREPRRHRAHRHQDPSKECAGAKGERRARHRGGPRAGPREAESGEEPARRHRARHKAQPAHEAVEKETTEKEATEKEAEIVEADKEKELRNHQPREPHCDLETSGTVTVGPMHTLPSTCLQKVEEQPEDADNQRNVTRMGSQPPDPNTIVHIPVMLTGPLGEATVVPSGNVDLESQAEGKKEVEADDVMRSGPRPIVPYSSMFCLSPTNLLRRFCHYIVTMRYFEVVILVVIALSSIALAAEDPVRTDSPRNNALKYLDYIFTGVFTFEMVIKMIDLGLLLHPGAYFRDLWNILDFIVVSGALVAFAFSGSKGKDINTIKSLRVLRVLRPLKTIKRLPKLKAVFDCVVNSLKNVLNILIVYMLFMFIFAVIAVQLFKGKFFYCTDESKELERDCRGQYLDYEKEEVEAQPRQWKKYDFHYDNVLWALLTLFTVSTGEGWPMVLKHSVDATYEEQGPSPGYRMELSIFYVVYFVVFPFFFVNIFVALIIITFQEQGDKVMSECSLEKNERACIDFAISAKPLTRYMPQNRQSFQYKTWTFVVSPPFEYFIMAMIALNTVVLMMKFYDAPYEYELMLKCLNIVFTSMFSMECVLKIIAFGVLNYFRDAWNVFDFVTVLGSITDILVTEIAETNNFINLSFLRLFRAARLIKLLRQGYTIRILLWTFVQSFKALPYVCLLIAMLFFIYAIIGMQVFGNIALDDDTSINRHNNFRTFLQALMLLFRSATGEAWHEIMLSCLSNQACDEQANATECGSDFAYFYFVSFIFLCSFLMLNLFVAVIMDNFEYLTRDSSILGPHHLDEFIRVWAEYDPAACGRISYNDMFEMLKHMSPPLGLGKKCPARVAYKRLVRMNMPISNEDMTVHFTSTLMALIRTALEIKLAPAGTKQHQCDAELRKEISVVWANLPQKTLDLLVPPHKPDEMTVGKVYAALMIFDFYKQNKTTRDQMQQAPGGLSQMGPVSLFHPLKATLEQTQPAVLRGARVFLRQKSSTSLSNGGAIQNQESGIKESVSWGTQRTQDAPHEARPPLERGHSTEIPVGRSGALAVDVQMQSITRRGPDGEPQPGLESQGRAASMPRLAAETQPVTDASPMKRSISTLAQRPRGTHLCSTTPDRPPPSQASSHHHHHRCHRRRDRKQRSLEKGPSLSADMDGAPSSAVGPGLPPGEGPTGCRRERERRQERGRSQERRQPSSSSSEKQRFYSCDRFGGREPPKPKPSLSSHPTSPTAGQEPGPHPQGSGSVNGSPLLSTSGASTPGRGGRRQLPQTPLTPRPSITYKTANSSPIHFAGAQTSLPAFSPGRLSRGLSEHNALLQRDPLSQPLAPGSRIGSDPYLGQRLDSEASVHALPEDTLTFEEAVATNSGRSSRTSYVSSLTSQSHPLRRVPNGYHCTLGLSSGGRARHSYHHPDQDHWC
Chain of Voltage-gated N-type calcium channel alpha-1B subunit/Amyloid beta A4 precursor protein-binding family A member 1 (Q02410 whole entry): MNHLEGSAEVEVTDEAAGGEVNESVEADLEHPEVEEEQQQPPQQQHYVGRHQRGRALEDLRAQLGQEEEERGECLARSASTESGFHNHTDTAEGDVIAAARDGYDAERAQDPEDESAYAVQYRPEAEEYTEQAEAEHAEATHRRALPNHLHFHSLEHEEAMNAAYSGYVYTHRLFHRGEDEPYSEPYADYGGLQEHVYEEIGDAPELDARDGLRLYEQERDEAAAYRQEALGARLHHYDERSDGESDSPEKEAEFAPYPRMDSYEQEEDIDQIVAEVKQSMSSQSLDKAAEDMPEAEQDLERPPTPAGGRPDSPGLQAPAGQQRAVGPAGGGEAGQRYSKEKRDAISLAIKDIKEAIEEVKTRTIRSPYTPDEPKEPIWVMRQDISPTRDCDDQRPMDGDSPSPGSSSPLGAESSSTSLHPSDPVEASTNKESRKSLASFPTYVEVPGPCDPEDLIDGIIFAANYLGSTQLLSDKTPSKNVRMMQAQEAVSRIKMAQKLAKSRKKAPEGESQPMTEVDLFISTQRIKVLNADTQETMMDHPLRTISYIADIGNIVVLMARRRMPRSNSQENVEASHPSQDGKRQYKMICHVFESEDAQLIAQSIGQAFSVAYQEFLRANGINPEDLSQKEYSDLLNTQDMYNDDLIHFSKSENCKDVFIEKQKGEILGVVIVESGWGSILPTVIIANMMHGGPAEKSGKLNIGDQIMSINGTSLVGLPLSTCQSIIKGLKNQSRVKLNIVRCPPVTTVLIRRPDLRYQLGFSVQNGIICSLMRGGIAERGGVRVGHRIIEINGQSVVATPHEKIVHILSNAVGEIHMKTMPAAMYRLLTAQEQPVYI
Chain of Melanin-concentrating hormone receptor 1 (Q99705 whole entry): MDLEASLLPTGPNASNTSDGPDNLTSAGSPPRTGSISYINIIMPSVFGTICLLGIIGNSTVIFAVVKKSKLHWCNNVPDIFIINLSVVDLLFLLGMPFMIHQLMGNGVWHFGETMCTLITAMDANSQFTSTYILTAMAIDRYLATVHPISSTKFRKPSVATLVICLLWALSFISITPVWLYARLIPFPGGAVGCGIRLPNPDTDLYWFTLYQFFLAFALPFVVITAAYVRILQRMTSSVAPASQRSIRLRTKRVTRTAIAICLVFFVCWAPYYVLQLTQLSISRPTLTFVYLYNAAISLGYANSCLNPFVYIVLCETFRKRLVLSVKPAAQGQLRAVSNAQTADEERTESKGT
Chain of ATP-dependent molecular chaperone HSP82 (C4YTQ8 whole entry): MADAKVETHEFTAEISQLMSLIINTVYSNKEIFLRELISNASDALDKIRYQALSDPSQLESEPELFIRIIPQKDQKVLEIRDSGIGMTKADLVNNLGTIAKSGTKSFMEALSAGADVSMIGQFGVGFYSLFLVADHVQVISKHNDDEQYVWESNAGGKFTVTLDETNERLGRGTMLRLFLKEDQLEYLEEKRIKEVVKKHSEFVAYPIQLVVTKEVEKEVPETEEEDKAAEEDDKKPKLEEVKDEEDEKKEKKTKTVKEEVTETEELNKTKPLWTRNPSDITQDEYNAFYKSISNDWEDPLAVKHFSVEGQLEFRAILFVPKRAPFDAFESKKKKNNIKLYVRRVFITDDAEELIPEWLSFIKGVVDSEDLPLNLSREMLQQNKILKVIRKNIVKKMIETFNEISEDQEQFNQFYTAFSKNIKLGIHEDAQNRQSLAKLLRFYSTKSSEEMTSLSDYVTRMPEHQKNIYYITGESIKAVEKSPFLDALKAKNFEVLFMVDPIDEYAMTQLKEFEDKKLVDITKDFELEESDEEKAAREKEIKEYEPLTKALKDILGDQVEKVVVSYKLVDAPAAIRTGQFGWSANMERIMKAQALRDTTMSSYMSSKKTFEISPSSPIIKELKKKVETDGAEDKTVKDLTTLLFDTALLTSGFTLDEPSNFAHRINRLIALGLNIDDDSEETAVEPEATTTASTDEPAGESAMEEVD
Chain of Serine/threonine-protein phosphatase PP1-alpha catalytic subunit (P62136 whole entry): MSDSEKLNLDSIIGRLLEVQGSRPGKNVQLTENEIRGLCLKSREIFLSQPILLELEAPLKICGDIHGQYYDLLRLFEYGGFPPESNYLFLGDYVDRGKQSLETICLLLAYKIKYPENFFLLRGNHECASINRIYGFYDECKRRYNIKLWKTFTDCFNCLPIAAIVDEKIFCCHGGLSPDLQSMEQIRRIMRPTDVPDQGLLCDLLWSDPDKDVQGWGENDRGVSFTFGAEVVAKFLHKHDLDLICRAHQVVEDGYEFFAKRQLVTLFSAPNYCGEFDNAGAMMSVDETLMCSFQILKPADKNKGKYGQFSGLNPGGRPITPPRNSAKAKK

Turning to `COc1ccc(-n2c(=S)[nH]c3c(oc4ccccc43)c2=O)cc1`, the IC50 in assay [1] was 4.93 µM (active); in [2], 2.32 µM (active).

With `COC(=O)C1=C(C)N(Cc2ccccc2)C2=C(C(C)=O)C[C@@](O)(C(=O)OC)C(=O)N2C1c1ccccc1` (stereo partly specified), the AC50 on Cytochrome P450 3A4 [3] and on Cytochrome P450 3A4 [4] was 3.16 µM (inconclusive) each time.

As to `COc1ccc(C(c2cc3c(cc2O)OCO3)N2CCCCC2)cc1` (stereo unspecified), in [5], the IC50 is < 2.5 µM (not active).

For the compound `O=C(Nc1nc(-c2ccc(Cl)cc2)cs1)c1ccccc1F`, the CC50 in the assay on Vero is > 40 µM (active).

For the compound `CCOC(=O)c1sc(N2C(=O)C(O)=C(C(=O)c3ccco3)C2c2cccc([N+](=O)[O-])c2)nc1C` (stereo unspecified), the IC50 was > 20 µM (inactive) in the assay on HEK293 [6]; > 67 µM (not active) in assay [7]; > 20 µM (inactive) in the assay with HEK293 [8]; 11.8 µM (not active) in assay [10]; > 20 µM (inactive) in the assay with HEK293 [11]. Besides, the EC50 in the assay with HEK293 [9] is > 20 µM (inactive).

In the case of `COc1ccc(Oc2c(Cl)cnn(-c3cccc4ccccc34)c2=O)cc1`, the IC50 in assay [12] is 8.4 µM (active).

For `Oc1c(Br)cc(Br)cc1/C=N/Nc1ccc(Cl)nn1`, the EC50 in assay [13] was 0.495 µM (active); in the assay on Streptococcus, 0.899 µM (active); in assay [15], 0.931 µM (active); in [16], > 20 µM (inactive); in [17] it was 0.287 µM (active); in assay [18], 45.2 µM (active). The EC50 in [19] is > 180 µM (inactive); in assay [20], 0.249 µM (active); in assay [21], > 30 µM (not active); in assay [22], 24.3 µM (active); in the assay with HEK293 [9] it was > 20 µM (inactive); in the assay “cells”, 0.502 µM (active). The EC50 is > 12 µM (inconclusive) in assay [23], < 0.03 µM (active) in assay [24] and < 0.1 µM (active) in assay [25]. In addition, the IC50 in the assay on HEK293 [14], in the assay on HEK293 [6], in the assay with HEK293 [8] and in the assay with HEK293 [11] was > 20 µM (inactive) each time. In the assay with INS1, the AC50 was 0.22 µM (active).

As for `O=C(NCCc1ccc(Cl)cc1)c1cc(-c2ccco2)nc2ccccc12`, in [26], the IC50 is 31.1 µM (active).

Consider `C(=C\c1sc(Nc2ccccc2)n[n+]1-c1ccccc1)/c1ccccc1`, for which the IC50 on Beta-galactosidase was > 66.6 µM (inactive); in [27], 48.8 µM (inactive).
